Measured values taken from US10681908B2, “Molecules having pesticidal utility, and intermediates, compositions, and processes, related thereto” (Dow AgroSciences LLC, priority 2016, dated 2020).

Legend:
Assay type in all cases: in vivo
[1] = tested on: Beet Armyworm (Spodoptera exigua, LAPHEG); assay: Bioassay on Beet Armyworm (BAW), 128-well diet tray assay; conditions: 168 h, 50 μg/cm^2 on artificial diet, second instar larvae, five to seven days, 25° C., read-out: BAW % Control (or Mortality) rating
Outline: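 Mortality of second-instar larvae (one to five per well) was scored after five to seven days at 25 °C under 14:10 light-dark and averaged across eight wells. Each well's diet had received 50 μg/cm^2 test molecule from a 90:10 acetone-water solution, allowed to dry before infestation.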

[2] = tested on: Cabbage Looper (Trichoplusia ni, TRIPNI); assay: Bioassay on Cabbage Looper (CL), 128-well diet tray assay; conditions: 168 h, 50 μg/cm^2 on artificial diet, second instar larvae, five to seven days, 25° C., read-out: CL % Control (or Mortality) rating
Outline: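 Percent mortality, averaged over eight wells, scored after five to seven days at 25° C. under 14:10 light-dark. Each well held 1–5 second-instar larvae on artificial diet treated with 50 μg/cm^2 test molecule applied in 90:10 acetone-water and dried.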

[3] = tested on: Green Peach Aphid (Myzus persicae, MYZUPE); assay: Bioassay on Green Peach Aphid (GPA), foliar spray on infested cabbage seedlings; conditions: 72 h, 200 ppm foliar spray, three days, Abbott corrected % control, read-out: GPA % Control (or Mortality) rating
Procedure: Example B: Bioassays on Green Peach Aphid (Myzus Persicae, MYZUPE) (“GPA”)
Certain molecules disclosed in this document were tested against GPA using procedures described in the following example. In the reporting of the results, the “GPA & YFM Rating Table” was used (See Table Section).
Cabbage seedlings grown in 3-inch pots, with 2-3 small (3-5 cm) true leaves, were used as test substrate. The seedlings were infested with 20-50 GPA (wingless adult and nymph stages) one day prior to chemical application. Four pots with individual seedlings were used for each treatment. Test molecules (2 mg) were dissolved in 2 mL of acetone/methanol (1:1) solvent, forming stock solutions of 1000 ppm test molecule. The stock solutions were diluted 5× with 0.025% Tween 20 in water to obtain the solution at 200 ppm test molecule. A hand-held aspirator-type sprayer was used for spraying a solution to both sides of […] leaves until runoff. Reference plants (solvent check) were sprayed with the diluent only containing 20% by volume of acetone/methanol (1:1) solvent. Treated plants were held in a holding room for three days at approximately 25° C. and ambient relative humidity (RH) prior to grading. Evaluation was conducted by counting the number of live aphids per plant under a microscope. Percent Control was measured by using Abbott's correction formula (W. S. Abbott, “A Method of Computing the Effectiveness of an Insecticide” J. Econ. Entomol. 18 (1925), pp. 265-267) as follows. Corrected % Control=100*(X−Y)/X • where • X=No. of live aphids on solvent check plants and • Y=No. of live aphids on treated plants

[4] = tested on: Yellow Fever Mosquito (Aedes aegypti, AEDSAE); conditions: about 1 day-old larvae, 3 days, room temperature, scored on mortality
Outline: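 Compounds from DMSO master plates (4000 ppm stock) diluted with 90:10 water:acetone, then about 1-day-old larvae in liver-powder water added. Held covered at room temperature for 3 days; each well scored for mortality.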

SMILES	mortality at 50 µg/cm2 [1] [%]	mortality at 50 µg/cm2 [2] [%]	mortality at 200 ppm [3] [%]	YFM % Control (or Mortality) rating [4]
C[C@H](C[S+]([O-])CC(F)(F)F)NC(=O)c1ccc(/C(F)=C/C(c2cc(Cl)cc(Br)c2)C(F)(F)F)cc1C(F)(F)F (stereo partly drawn) [F68, 4-((Z)-3-(3-Bromo-5-chlorophenyl)-1,4,4,4-tetrafluorobut-1-en-1-yl)-N-((2R)-1-((2,2,2-trifluoroethyl)sulfinyl)propan-2-yl)-2-(trifluoromethyl)benzamide]	50 to 100	50 to 100	0 to 80	A (80-100)
C[C@H](C[S+]([O-])CC(F)(F)F)NC(=O)c1ccc(/C(F)=C/C(c2cc(Cl)c(Cl)c(Cl)c2)C(F)(F)F)cc1C(F)(F)F (stereo partly drawn) [F3, 4-((Z)-1,4,4,4-tetrafluoro-3-(3,4,5-trichlorophenyl)but-1-en-1-yl)-N-((2R)-1-((2,2,2-trifluoroethyl)sulfinyl)propan-2-yl)-2-(trifluoromethyl)benzamide]	50 to 100	50 to 100	0 to 80	–
C[C@H](CS(=O)(=O)CC(F)(F)F)NC(=O)c1ccc(/C(F)=C/C(c2ccc(F)c(Cl)c2)C(F)(F)F)cc1C(F)(F)F (stereo partly drawn) [PF2, 4-((Z)-3-(3-Chloro-4-fluorophenyl)-1,4,4,4-tetrafluorobut-1-en-1-yl)-N—((R)-1-((2,2,2-trifluoroethyl)sulfonyl)propan-2-yl)-2-(trifluoromethyl)benzamide]	50 to 100	50 to 100	0 to 80	B (More than 0-Less than 80)
C[C@H](CS(=O)(=O)CC(F)(F)F)NC(=O)c1ccc(/C(F)=C/C(c2cc(Br)cc(Br)c2)C(F)(F)F)cc1C(F)(F)F (stereo partly drawn) [F69, 4-((Z)-3-(3,5-Dibromophenyl)-1,4,4,4-tetrafluorobut-1-en-1-yl)-N—((R)-1-((2,2,2-trifluoroethyl)sulfonyl)propan-2-yl)-2-(trifluoromethyl)benzamide]	50 to 100	50 to 100	0 to 80	A (80-100)
C[C@H](CS(=O)(=O)CC(F)(F)F)NC(=O)c1ccc(/C(F)=C/C(c2cc(Cl)c(C(F)F)c(Cl)c2)C(F)(F)F)cc1C(F)(F)F (stereo partly shown) [F104]	50 to 100	50 to 100	0	A (80-100)
C[C@H](CS(=O)(=O)CC(F)(F)F)NC(=O)c1ccc(/C(F)=C/C(c2cc(Cl)c(Cl)c(Cl)c2)C(F)(F)F)cc1C(F)(F)F (stereo partly drawn) [F2, 4-((Z)-1,4,4,4-tetrafluoro-3-(3,4,5-trichlorophenyl)but-1-en-1-yl)-N—((R)-1-((2,2,2-trifluoroethyl)sulfonyl)propan-2-yl)-2-(trifluoromethyl)benzamide]	50 to 100	50 to 100	0 to 80	–
C[C@H](CSCC(F)(F)F)NC(=O)c1ccc(/C(F)=C/C(c2cc(Cl)c(Cl)c(Cl)c2)C(F)(F)F)cc1C(F)(F)F (stereo partly drawn) [F1, 4-((Z)-1,4,4,4-tetrafluoro-3-(3,4,5-trichlorophenyl)but-1-en-1-yl)-N—((R)-1-((2,2,2-trifluoroethyl)thio)propan-2-yl)-2-(trifluoromethyl)benzamide]	50 to 100	50 to 100	0 to 80	–
C[C@H](C[S+](C)[O-])NC(=O)c1ccc(/C(F)=C/C(c2cc(Cl)c(Cl)c(Cl)c2)C(F)(F)F)cc1C(F)(F)F (stereo partly drawn) [F88, N-((2R)-1-(Methylsulfinyl)propan-2-yl)-4-((Z)-1,4,4,4-tetrafluoro-3-(3,4,5-trichlorophenyl)but-1-en-1-yl)-2-(trifluoromethyl)benzamide]	50 to 100	50 to 100	80 to 100	–
COc1ccc(C(/C=C(\F)c2ccc(C(=O)N[C@H](C)CS(=O)(=O)CC(F)(F)F)c(C(F)(F)F)c2)C(F)(F)F)cc1Cl (stereo partly drawn) [F142, 4-((Z)-3-(3-Chloro-4-methoxyphenyl)-1,4,4,4-tetrafluorobut-1-en-1-yl)-N—((R)-1-((2,2,2-trifluoroethyl)sulfonyl)propan-2-yl)-2-(trifluoromethyl)benzamide]	50 to 100	50 to 100	–	B (More than 0-Less than 80)
C[C@H](C[S+]([O-])CCC(F)(F)F)NC(=O)c1ccc(/C(F)=C/C(c2cc(Cl)c(Cl)c(Cl)c2)C(F)(F)F)cc1C(F)(F)F (stereo partly drawn) [F121, 4-((Z)-1,4,4,4-Tetrafluoro-3-(3,4,5-trichlorophenyl)but-1-en-1-yl)-2-(trifluoromethyl)-N-((2R)-1-((3,3,3-trifluoropropyl)sulfinyl)propan-2-yl)benzamide]	50 to 100	50 to 100	–	A (80-100)
C[C@H](C[S+]([O-])CCF)NC(=O)c1ccc(/C(F)=C/C(c2cc(Cl)c(Cl)c(Cl)c2)C(F)(F)F)cc1C(F)(F)F (stereo partly drawn) [F99, N-((2R)-1-((2-Fluoroethyl)sulfinyl)propan-2-yl)-4-((Z)-1,4,4,4-tetrafluoro-3-(3,4,5-trichlorophenyl)but-1-en-1-yl)-2-(trifluoromethyl)benzamide]	50 to 100	50 to 100	–	A (80-100)
C[C@H](C[S+]([O-])CC(F)(F)F)NC(=O)c1ccc(/C(F)=C/C(c2cc(Br)cc(Br)c2)C(F)(F)F)cc1C(F)(F)F (stereo partly drawn) [F31, 4-((Z)-3-(3,5-Dibromophenyl)-1,4,4,4-tetrafluorobut-1-en-1-yl)-N-((2R)-1-((2,2,2-trifluoroethyl)sulfinyl)propan-2-yl)-2-(trifluoromethyl)benzamide]	50 to 100	50 to 100	–	B (More than 0-Less than 80)
O=C(NCCSC(F)(F)F)c1ccc(/C(F)=C/C(c2cc(Cl)c(Cl)c(Cl)c2)C(F)(F)F)cc1C(F)(F)F (stereo not shown) [F92, (Z)-4-(1,4,4,4-tetrafluoro-3-(3,4,5-trichlorophenyl)but-1-en-1-yl)-2-(trifluoromethyl)-N-(2-((trifluoromethyl)thio)ethyl)benzamide]	50 to 100	50 to 100	–	B (More than 0-Less than 80)
CC[S+]([O-])C[C@@H](C)NC(=O)c1ccc(/C(F)=C/C(c2cc(C)c(Cl)c(C)c2)C(F)(F)F)cc1C(F)(F)F (stereo partly drawn) [F44, 4-((Z)-3-(4-Chloro-3,5-dimethylphenyl)-1,4,4,4-tetrafluorobut-1-en-1-yl)-N-((2R)-1-(ethylsulfinyl)propan-2-yl)-2-(trifluoromethyl)benzamide]	50 to 100	50 to 100	–	A (80-100)
C[C@H](CS(=O)(=O)CCC(F)(F)F)NC(=O)c1ccc(/C(F)=C/C(c2cc(Cl)c(Cl)c(Cl)c2)C(F)(F)F)cc1C(F)(F)F (stereo partly drawn) [F130, 4-((Z)-1,4,4,4-tetrafluoro-3-(3,4,5-trichlorophenyl)but-1-en-1-yl)-2-(trifluoromethyl)-N—((R)-1-((3,3,3-trifluoropropyl)sulfonyl)propan-2-yl)benzamide]	50 to 100	50 to 100	–	B (More than 0-Less than 80)
